Assay results reported in ChEMBL document CHEMBL3525920, “CYP4F enzymes are responsible for the elimination of fingolimod (FTY720), a novel treatment of relapsing multiple sclerosis” (Drug Metab Dispos, 2011).

How the values were obtained:
[1] = Drug metabolism in human liver cytosol assessed as metabolite formation by HPLC-RA analysis; format: ADME, tissue-based
Cytochrome P450 4F2 [2] = target: T1, Cytochrome P450 4F2 (Homo sapiens, UniProt P78329); assay: Activity at human recombinant CYP4F2 expressed in baculovirus-infected BTI-TN-5B1-4 insect cell microsomes assessed as intrinsic clearance for metabolite formation after 15 mins measured per nmol of P450 by Eadie-Hofstee plot analysis; format: ADME; conditions: bti-tn-5b1-4, 0.25 h
T1 sequence (P78329 whole entry): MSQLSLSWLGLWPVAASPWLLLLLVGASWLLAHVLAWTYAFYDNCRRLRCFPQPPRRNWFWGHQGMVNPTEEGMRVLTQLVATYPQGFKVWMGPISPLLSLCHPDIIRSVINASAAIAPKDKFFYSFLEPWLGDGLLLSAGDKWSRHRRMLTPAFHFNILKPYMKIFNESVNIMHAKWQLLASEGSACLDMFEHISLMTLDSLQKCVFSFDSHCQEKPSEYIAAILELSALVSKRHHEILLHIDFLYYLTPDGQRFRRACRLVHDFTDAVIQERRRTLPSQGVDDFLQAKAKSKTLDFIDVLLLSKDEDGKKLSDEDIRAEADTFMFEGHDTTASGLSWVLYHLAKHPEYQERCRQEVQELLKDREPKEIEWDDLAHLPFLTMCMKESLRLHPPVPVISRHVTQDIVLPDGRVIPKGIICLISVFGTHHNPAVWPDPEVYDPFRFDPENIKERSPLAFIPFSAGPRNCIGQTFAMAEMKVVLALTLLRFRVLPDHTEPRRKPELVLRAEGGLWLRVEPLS

Cytochrome P450 4F12 [3] = target: T2, Cytochrome P450 4F12 (Homo sapiens, UniProt Q9HCS2); assay: Activity at human recombinant CYP4F12 expressed in baculovirus-infected BTI-TN-5B1-4 insect cell microsomes at 10 uM by HPLC-RA analysis in presence of CYP4F2 and CYP4F12 inhibitor ketoconazole; format: ADME; conditions: bti-tn-5b1-4, 10 µM
[4] = Retention time of the compound by C18 advantage armor column based LC-MS analysis; format: physicochemical
Liver microsome [5] = assay: Drug metabolism in human liver microsomes assessed as total metabolite formation at 1 to 50 uM after 20 mins by HPLC-RA analysis in presence of CYP2C8 inhibitor paclitaxel; format: ADME
Liver microsome [6] = assay: Drug metabolism in human liver microsomes assessed as total metabolite formation at 1 to 50 uM after 20 mins by HPLC-RA analysis in presence of CYP3A4 mechanism-based inhibitor TAO and NADPH; format: ADME
Cytochrome P450 3A5 [7] = target: T3, Cytochrome P450 3A5 (Homo sapiens, UniProt P20815); assay: Activity at CYP3A5 in human liver microsomes isolated from donors assessed as metabolite formation after 24 mins by HPLC-RA analysis; format: ADME; conditions: 0.4 h
Liver microsome [8] = assay: Drug metabolism in human liver microsomes assessed as metabolite formation at 50 uM treated 15 mins after antibody addition measured after 20 mins by HPLC-RA analysis in presence of CYP3A4-specific monoclonal antibody; format: ADME
[9] = Retention time of the compound by long gradient-based HPLC-RA analysis; format: physicochemical
Cytochrome P450 2C18 = Cytochrome P450 2C18 (Homo sapiens, UniProt P33260); assay: Activity at human recombinant CYP2C18 expressed in baculovirus-infected BTI-TN-5B1-4 insect cell microsomes assessed as metabolite formation at 5 to 100 uM after 30 mins by HPLC-RA analysis; format: ADME; conditions: bti-tn-5b1-4, 0.5 h
Liver microsome [10] = assay: Drug metabolism in human liver microsomes assessed as metabolite M12 (2-amino-2-(4-(8-hydroxyoctyl)phenethyl)propane-1,3-diol) formation at 20 uM after 30 mins by HPLC-RA analysis in presence of NADPH; format: ADME; conditions: 0.5 h
[11] = Activity at CYP4F in human liver microsomes assessed as metabolite formation after 15 mins measured per mg protein by Eadie-Hofstee plot analysis; format: ADME; conditions: 0.25 h
[12] = Activity at CYP4A in human liver microsomes assessed as metabolite formation after 24 hrs by HPLC-RA analysis; format: ADME
Cytochrome P450 1A2 = Cytochrome P450 1A2 (Homo sapiens, UniProt P05177); assay: Activity at CYP1A2 in human liver microsomes isolated from donors assessed as metabolite formation after 24 mins by HPLC-RA analysis; format: ADME; conditions: 0.4 h
Cytochrome P450 2C8 [13] = target: T4, Cytochrome P450 2C8 (Homo sapiens, UniProt P10632); assay: Activity at CYP2C8 in human liver microsomes isolated from donors assessed as metabolite formation after 24 mins by HPLC-RA analysis; format: ADME; conditions: 0.4 h
Cytochrome P450 4F3 = Cytochrome P450 4F3 (Homo sapiens, UniProt Q08477); assay: Activity at human recombinant CYP4F3A expressed in baculovirus-infected BTI-TN-5B1-4 insect cell microsomes assessed as metabolite formation at 5 to 100 µM after 30 mins by HPLC-RA analysis; format: ADME; conditions: bti-tn-5b1-4, 0.5 h
[14] = Activity at FMO in human liver microsomes isolated from donors assessed as metabolite formation after 24 mins by HPLC-RA analysis; format: ADME; conditions: 0.4 h
Cytochrome P450 3A5 [15] = target: T3, Cytochrome P450 3A5; assay: Activity at human recombinant CYP3A5 expressed in baculovirus-infected BTI-TN-5B1-4 insect cell microsomes assessed as metabolite formation at 5 to 100 uM after 30 mins by HPLC-RA analysis; format: ADME; conditions: bti-tn-5b1-4, 0.5 h
Liver microsome [16] = assay: Drug metabolism in human liver microsomes assessed as total metabolite formation at 1 to 50 uM after 20 mins by HPLC-RA analysis in presence of mechanism-based CYP1A2 inhibitor furafylline and NADPH; format: ADME
Cytochrome P450 2B6 = Cytochrome P450 2B6 (Homo sapiens, UniProt P20813); assay: Activity at human recombinant CYP2B6 expressed in baculovirus-infected BTI-TN-5B1-4 insect cell microsomes assessed as metabolite formation at 5 to 100 uM after 30 mins by HPLC-RA analysis; format: ADME; conditions: bti-tn-5b1-4, 0.5 h
Cytochrome P450 1B1 = Cytochrome P450 1B1 (Homo sapiens, UniProt Q16678); assay: Activity at human recombinant CYP1B1 expressed in baculovirus-infected BTI-TN-5B1-4 insect cell microsomes assessed as metabolite formation at 5 to 100 uM after 30 mins by HPLC-RA analysis; format: ADME; conditions: bti-tn-5b1-4, 0.5 h
Cytochrome P450 4F2 [17] = target: T1, Cytochrome P450 4F2; assay: Activity at human recombinant CYP4F2 expressed in baculovirus-infected BTI-TN-5B1-4 insect cell microsomes at 10 uM by HPLC-RA analysis in presence of CYP4F2 and CYP4F12 inhibitor ketoconazole; format: ADME; conditions: bti-tn-5b1-4, 10 µM
Cytochrome P450 4F12 [18] = target: T2, Cytochrome P450 4F12; assay: Activity at human recombinant CYP4F12 expressed in baculovirus-infected BTI-TN-5B1-4 insect cell microsomes assessed as metabolite formation at 5 to 100 uM after 30 mins by HPLC-RA analysis; format: ADME; conditions: bti-tn-5b1-4, 0.5 h
[19] = Activity at CYP4F in human liver microsomes assessed as metabolite formation after 15 mins by Eadie-Hofstee plot analysis; format: ADME; conditions: 0.25 h
Cytochrome P450 2C8 [20] = target: T4, Cytochrome P450 2C8; assay: Activity at human recombinant CYP2C8 expressed in baculovirus-infected BTI-TN-5B1-4 insect cell microsomes assessed as metabolite formation at 5 to 100 uM after 30 mins by HPLC-RA analysis; format: ADME; conditions: bti-tn-5b1-4, 0.5 h
Cytochrome P450 2D6 = Cytochrome P450 2D6 (Homo sapiens, UniProt P10635); assay: Activity at CYP2D6 in human liver microsomes isolated from donors assessed as metabolite formation after 24 mins by HPLC-RA analysis; format: ADME; conditions: 0.4 h
Liver microsome [21] = assay: Drug metabolism in human liver microsomes assessed as metabolite formation at 50 uM treated 15 mins after antibody addition measured after 20 mins by HPLC-RA analysis in presence of CYP4F2-specific polyclonal antibody; format: ADME

T4 sequence (P10632 whole entry): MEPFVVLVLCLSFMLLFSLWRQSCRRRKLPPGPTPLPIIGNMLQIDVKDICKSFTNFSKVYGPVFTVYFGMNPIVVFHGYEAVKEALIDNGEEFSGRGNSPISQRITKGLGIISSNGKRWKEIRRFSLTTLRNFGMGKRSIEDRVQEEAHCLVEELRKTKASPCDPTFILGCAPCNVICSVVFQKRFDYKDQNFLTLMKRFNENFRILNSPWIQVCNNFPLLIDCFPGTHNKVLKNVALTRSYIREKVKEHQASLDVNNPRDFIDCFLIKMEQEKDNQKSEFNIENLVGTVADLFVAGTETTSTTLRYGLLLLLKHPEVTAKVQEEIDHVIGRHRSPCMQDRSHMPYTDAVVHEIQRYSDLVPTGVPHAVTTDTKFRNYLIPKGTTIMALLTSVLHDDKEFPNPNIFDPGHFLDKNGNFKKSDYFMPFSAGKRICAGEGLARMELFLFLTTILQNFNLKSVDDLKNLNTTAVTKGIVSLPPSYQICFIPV
T2 sequence (Q9HCS2 whole entry): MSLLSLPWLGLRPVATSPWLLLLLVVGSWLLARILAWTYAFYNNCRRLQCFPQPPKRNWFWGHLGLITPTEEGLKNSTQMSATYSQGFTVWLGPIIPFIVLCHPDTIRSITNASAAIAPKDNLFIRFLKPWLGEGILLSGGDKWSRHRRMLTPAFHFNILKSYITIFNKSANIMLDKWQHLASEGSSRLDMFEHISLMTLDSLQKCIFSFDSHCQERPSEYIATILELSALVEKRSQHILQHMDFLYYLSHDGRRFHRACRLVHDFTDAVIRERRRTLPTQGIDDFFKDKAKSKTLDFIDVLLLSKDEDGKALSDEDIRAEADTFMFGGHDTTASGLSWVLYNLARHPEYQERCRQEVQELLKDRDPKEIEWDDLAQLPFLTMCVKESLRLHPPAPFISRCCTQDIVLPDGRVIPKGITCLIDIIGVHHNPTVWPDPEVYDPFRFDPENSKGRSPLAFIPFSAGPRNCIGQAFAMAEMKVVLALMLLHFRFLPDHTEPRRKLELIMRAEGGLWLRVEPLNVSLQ
T3 sequence (P20815 whole entry): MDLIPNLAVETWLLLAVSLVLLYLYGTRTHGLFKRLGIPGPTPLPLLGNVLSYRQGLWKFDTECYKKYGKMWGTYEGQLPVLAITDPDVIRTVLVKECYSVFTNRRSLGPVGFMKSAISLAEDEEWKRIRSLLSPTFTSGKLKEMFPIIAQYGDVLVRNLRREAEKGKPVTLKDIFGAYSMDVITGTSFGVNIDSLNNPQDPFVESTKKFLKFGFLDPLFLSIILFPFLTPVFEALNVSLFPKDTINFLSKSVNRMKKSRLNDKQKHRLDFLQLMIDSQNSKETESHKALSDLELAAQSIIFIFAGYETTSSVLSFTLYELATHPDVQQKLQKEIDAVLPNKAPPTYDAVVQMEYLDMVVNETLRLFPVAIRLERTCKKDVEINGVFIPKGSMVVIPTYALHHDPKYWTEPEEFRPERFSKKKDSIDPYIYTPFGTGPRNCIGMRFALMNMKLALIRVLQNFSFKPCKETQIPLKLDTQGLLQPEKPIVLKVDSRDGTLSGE
Chain of Cytochrome P450 2B6 (P20813 whole entry): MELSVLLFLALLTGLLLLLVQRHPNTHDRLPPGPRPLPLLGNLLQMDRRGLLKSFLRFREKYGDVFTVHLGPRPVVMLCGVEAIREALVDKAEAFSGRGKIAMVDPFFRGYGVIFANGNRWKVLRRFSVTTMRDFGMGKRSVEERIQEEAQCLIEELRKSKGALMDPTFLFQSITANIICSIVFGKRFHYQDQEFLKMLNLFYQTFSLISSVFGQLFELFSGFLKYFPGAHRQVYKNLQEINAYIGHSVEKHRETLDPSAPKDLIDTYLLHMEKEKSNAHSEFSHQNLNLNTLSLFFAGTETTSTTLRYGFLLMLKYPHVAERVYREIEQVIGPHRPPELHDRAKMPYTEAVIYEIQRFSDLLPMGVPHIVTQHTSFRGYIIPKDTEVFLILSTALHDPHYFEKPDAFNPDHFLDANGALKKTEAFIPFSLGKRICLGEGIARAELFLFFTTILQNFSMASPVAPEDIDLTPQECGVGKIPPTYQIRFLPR
Chain of Cytochrome P450 2D6 (P10635 whole entry): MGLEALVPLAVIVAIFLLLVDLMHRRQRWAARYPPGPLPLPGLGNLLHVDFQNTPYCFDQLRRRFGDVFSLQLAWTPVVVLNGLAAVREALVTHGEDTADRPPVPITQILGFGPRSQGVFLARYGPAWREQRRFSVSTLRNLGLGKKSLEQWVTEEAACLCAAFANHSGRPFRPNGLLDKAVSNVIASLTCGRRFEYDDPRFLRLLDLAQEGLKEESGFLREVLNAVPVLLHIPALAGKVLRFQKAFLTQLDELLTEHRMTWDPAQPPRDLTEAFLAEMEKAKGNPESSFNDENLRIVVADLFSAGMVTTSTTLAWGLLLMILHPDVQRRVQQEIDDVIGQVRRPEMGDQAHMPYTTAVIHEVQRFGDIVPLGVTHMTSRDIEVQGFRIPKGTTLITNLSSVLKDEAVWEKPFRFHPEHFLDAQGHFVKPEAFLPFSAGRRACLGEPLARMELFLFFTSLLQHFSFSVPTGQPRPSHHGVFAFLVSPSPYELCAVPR
Chain of Cytochrome P450 4F3 (Q08477 whole entry): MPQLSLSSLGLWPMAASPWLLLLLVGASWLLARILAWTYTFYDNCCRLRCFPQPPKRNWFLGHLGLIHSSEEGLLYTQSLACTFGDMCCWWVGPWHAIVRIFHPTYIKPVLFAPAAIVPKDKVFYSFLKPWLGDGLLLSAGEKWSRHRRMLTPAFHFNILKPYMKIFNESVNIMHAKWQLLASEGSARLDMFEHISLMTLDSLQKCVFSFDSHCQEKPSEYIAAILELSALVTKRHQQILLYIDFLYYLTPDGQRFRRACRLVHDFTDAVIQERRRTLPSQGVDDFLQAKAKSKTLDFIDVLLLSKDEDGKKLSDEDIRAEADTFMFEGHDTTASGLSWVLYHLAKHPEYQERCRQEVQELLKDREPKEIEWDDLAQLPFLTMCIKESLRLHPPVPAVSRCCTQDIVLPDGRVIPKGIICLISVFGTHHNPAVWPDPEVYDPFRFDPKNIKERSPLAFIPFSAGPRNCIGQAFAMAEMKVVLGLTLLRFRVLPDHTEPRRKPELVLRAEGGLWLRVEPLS
Chain of Cytochrome P450 2C18 (P33260 whole entry): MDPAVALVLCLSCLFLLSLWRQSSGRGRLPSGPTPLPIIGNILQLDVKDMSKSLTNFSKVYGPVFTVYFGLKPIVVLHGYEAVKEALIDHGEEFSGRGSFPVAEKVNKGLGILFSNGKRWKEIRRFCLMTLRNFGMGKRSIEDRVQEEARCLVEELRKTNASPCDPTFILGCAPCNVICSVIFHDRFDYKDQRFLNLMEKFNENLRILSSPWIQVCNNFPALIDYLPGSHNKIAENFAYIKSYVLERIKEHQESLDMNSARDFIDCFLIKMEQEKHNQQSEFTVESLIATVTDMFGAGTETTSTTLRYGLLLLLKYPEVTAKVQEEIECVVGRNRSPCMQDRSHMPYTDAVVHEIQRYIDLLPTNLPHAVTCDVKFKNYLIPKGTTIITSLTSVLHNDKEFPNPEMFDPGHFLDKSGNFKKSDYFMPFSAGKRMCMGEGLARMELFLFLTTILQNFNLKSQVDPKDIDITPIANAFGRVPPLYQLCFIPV
Chain of Cytochrome P450 1A2 (P05177 whole entry): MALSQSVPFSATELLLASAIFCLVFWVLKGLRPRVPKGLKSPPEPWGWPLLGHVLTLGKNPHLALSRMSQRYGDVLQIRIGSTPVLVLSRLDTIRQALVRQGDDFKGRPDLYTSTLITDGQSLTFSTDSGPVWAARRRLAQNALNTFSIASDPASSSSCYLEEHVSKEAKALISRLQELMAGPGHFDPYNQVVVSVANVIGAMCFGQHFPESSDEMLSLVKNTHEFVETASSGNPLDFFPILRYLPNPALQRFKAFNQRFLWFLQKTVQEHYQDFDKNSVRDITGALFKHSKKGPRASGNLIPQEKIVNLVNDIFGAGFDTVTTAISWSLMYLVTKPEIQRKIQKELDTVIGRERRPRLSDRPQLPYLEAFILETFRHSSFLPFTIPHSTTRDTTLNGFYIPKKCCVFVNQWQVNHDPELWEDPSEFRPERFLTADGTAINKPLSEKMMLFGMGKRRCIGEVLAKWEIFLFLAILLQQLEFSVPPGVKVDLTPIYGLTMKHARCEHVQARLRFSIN
Chain of Cytochrome P450 1B1 (Q16678 whole entry): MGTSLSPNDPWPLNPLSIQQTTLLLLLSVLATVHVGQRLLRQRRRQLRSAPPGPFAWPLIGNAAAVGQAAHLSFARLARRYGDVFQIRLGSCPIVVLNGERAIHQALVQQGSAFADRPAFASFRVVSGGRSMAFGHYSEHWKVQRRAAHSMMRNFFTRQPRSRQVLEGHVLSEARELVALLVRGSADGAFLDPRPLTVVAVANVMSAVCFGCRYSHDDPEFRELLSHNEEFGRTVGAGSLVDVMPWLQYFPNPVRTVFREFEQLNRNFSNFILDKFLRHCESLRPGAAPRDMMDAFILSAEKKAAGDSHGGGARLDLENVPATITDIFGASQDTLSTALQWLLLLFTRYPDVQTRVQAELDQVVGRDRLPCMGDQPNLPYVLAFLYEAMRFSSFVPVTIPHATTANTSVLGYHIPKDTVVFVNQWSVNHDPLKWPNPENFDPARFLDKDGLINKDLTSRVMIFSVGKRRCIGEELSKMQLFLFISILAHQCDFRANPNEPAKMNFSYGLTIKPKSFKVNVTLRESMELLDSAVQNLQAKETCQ

Drug metabolism [1]: metabolite_not_detected | CL (Cytochrome P450 4F2 [2]): 23 µL/min | Drug metabolism (Cytochrome P450 4F12 [3]): metabolite_not_detected | Retention_time [4]: 42.7 min | Drug metabolism (Liver microsome [5]): metabolite_detected | Drug metabolism (Liver microsome [6]): metabolite_detected | Drug metabolism (Cytochrome P450 3A5 [7]): metabolite_not_detected | Drug metabolism (Liver microsome [8]): metabolite_detected | Retention_time [9]: 41.9 min | Drug metabolism (Cytochrome P450 2C18): metabolite_not_detected | Drug metabolism (Liver microsome [10]): metabolite_detected | Vmax [11]: 847 pmol/min | Drug metabolism [12]: metabolite_not_detected | Drug metabolism (Cytochrome P450 1A2): metabolite_not_detected | Drug metabolism (Cytochrome P450 2C8 [13]): metabolite_not_detected | Drug metabolism (Cytochrome P450 4F3): metabolite_not_detected | Drug metabolism [14]: metabolite_not_detected | Drug metabolism (Cytochrome P450 3A5 [15]): metabolite_not_detected | Drug metabolism (Liver microsome [16]): metabolite_detected | Drug metabolism (Cytochrome P450 2B6): metabolite_not_detected | Drug metabolism (Cytochrome P450 1B1): metabolite_not_detected | Drug metabolism (Cytochrome P450 4F2 [17]): metabolite_not_detected | Drug metabolism (Cytochrome P450 4F12 [18]): metabolite_detected | Km [19]: 183 µM | Drug metabolism (Cytochrome P450 2C8 [20]): metabolite_not_detected | Drug metabolism (Cytochrome P450 2D6): metabolite_not_detected | Drug metabolism (Liver microsome [21]): metabolite_not_detected
Compound: CCCCCCCCc1ccc(CC[14C](N)(CO)CO)cc1.Cl
